Source: BindingDB's records for doi:10.1074/jbc.M114.553248 (National Taiwan University, 2014)

Experiments:
[1] = target: Isoform A1-A of Heterogeneous nuclear ribonucleoprotein A1 (A1-A) 68-320] (Homo sapiens, UniProt P09651); test: Surface Plasmon Resonance (SPR) Assay; conditions: pH 4
Source text: (§1) Recombinant full-length hnRNPA1 (aa 1-320) and truncated versions of hnRNPA1, including the N-terminal RNA binding domain (aa 1-196), the middle region (aa 182-268), and the C-terminal region (aa 268-320), were individually covalently coupled to a dextran matrix (CM5 chip) using a Biacore T200 system (GE Healthcare), following the manufacturer's protocols. Immobilized proteins were activated with N-hydroxysuccinimide and 1-ethyl-3-(3-dimethylaminopropyl) carbodiimide to form a […] between carboxyl moieties on the dextran and […] on the protein. hnRNPA1 variants were dissolved in 10 mM acetate buffer (full-length, pH 4; N-terminal RNA binding domain and the C-terminal region, pH 4.5; middle region, pH 5) to a concentration of 20 μg/ml and flowed over the activated surface for 5 min with PBS. Unreacted groups were blocked with ethanolamine. PBS containing 0.05% (v/v) P20 (surfactant) and 5% DMSO was used for priming and conditioning the surface of the chips. Quercetin was serially diluted (from 200 to 3 μM) in PBS buffer and maintained in DMSO (5% (v/v)) (final concentrations from 10 to 0.15 μM). The baseline response was determined for 120 s (30 μl/min) before perfusing the immobilized proteins with the compounds to allow association to occur. Dissociation was then monitored over a period of an additional 120 s. […]

[2] = target: Isoform A1-A of Heterogeneous nuclear ribonucleoprotein A1 (A1-A) (Homo sapiens, UniProt P09651); test: Surface Plasmon Resonance (SPR) Assay; conditions: pH 4
Source text: as §1

Chain of Isoform A1-A of Heterogeneous nuclear ribonucleoprotein A1 (A1-A) (P09651 as listed by the source): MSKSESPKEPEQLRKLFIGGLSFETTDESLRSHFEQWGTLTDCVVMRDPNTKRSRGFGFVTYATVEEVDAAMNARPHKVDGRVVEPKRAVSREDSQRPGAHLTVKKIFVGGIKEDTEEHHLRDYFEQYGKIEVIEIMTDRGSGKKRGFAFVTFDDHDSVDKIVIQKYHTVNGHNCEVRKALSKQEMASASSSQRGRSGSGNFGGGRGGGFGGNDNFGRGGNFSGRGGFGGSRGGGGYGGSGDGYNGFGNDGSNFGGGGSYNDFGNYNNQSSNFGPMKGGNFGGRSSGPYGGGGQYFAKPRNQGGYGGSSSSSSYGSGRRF
Chain of Isoform A1-A of Heterogeneous nuclear ribonucleoprotein A1 (A1-A) 68-320] (P09651 320-372): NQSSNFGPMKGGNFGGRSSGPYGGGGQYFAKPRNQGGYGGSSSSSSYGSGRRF

Molecule `O=c1c(O)c(-c2ccc(O)c(O)c2)oc2cc(O)cc(O)c12` [2-(3,4-dihydroxyphenyl)-3,5,7-trihydroxy-chromone;hydrate] has a Kd [1] of 1.7 µM and a Kd [2] of 8.9 µM.
